System: Rhodopsin/VEGF transgenic mice
Assay: Retinal/subretinal neovascularization in rho/VEGF transgenic mice (Study 3; GSA lectin, image analysis)
Format: in vivo, mouse
Details: s.c. b.i.d. for 7 days, 3 mg/kg/dose, vs vehicle
Description: Thirty (30) Rhodopsin/VEGF transgenic mice having constitutive expression of VEGF in their retinal neurons were divided into three equal groups. At day 14 post natal each group received subcutaneous injections as follows: Group 1 received 10 mg/kg/injection (high dose) of a compound from Table XXI; Group 2 received 3 mg/kg/injection (low dose) of a compound from Table XXI; and Group 3 received injections of vehicle. Each animal received two injections per day for 7 days.
At P21, mice were sacrificed; eyes were harvested and fixed in 10% PBS-buffered formalin for 2 hours at room temperature. […] After 3 washes with PBST, retinas were mounted and imaged by fluorescence microscopy. Areas of retinal neovascularization were assessed using image analysis software (ImagePro Plus 5). […]
Transgenic mice in which the rhodopsin promoter drives expression of VEGF in photoreceptors (rho/VEGF mice) have onset of VEGF expression at P7 and starting at P10 develop sprouts of neovascularization from the deep capillary bed of the retina that grow through the photoreceptor layer and form an extensive network of new vessels in the subretinal space. […] FITC conjugated GSA was used to stain the retinas at room temperature for 2 hours and then the retinas were flat mounted with the photoreceptor side up and examined by fluorescence microscopy. […]

For `COC(=O)N[C@@H](Cc1ccccc1)C(=O)N[C@@H](Cc1ccc(NS(=O)(=O)O)cc1)c1csc(-c2cccs2)n1` [D91], the “neovascular tufts / new blood vessels in the retina at P21 (micrograph FIG. 3B)” value was “marked reduction of neovascular tufts”.
